Reference: patent publication US20110065597A1, “SINGLE MOLECULE PROTEOMICS WITH DYNAMIC PROBES” (LI-COR, INC., priority 2009, published 2011)

Columns and labels:
[1] = Photostability of dye-labeled secondary antibody in fixed NIH3T3 cells (fluorescence intensity vs exposure number); format: physicochemical; details: FIG. 3B, compared with IRDye 680 and Alexa Fluor 680
Description: LI-COR IRDye 700DX is shown in FIG. 3A which has multiple charged groups. NIH3T3 cells were fixed and permeabilized, followed by incubation with rabbit anti-histone primary antibody and goat anti-rabbit secondary antibody labeled with IRDye 680, IRDye 700DX, or Alexa Fluor 680. Images were recorded in movies of 2-second exposures by a Roper Micromax CCD in a Zeiss Axiovert S100 microscope. The mean fluorescence intensity of the field is plotted against exposure number (FIG. 3B).

neutravidin = neutravidin (Gallus gallus, UniProt P02701); details: at each individual immobilized biotin molecule, picomolar neutravidin in solution; cited from earlier work
Sequence of neutravidin (P02701 25-152): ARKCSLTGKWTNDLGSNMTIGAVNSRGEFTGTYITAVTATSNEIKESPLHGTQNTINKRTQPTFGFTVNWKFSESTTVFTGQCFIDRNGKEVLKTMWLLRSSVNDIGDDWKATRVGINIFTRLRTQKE

Row | photostability [1] | Compound | diffusion-limited binding rate (neutravidin)
1 | superior | C[Si](C)(CCC[N+](CCCS(=O)(=O)[O-])(CCCS(=O)(=O)[O-])CCCS(=O)(=O)[O-])O[Si]1(O[Si](C)(C)CCC[N+](CCCS(=O)(=O)[O-])(CCCS(=O)(=O)[O-])CCCS(=O)(=O)[O-])n2c3c4ccccc4c2N=C2N=C(N=c4c5ccccc5c(n41)=NC1=NC(=N3)c3ccccc31)c1cccc(OCCCOC(=O)NCCCCCC(=O)ON3C(=O)CCC3=O)c12.[Na+].[Na+].[Na+].[Na+] (centres unmarked) [IRDye, 700DX] | 
2 |  | O=C(O)CCCC[C@@H]1SC[C@@H]2NC(=O)N[C@@H]21 [biotin] | 1.9e+08 M⁻¹ s⁻¹
